The structures appear in SMILES notation. Some results are limits rather than exact numbers.

One assay has as its system hIRE1a. The assay is described as follows: XBP1-Luc cell assay. Type of assay: cell-based. To be noted: Homo sapiens; HEK293-pLVX-XBP1.fluc-IRES-Puro cells, 600 nM Thapsigargin 1 hour, then inhibitor 6 hours; read-out: fLuc_XBP1_hIRE1a_HEK293_IC50 (IC50). As for the experimental part: HEK293-pLVX-XBP1.fluc-IRES-Puro cells (ChemPartner) were collected into DMEM (Invitrogen, 11995-065) with 10% FBS (BI, 04-002-1A). Cells were seeded at 1.5E4 cells/well in BioCoat Poly-D-Lysine Black/Clear flat bottom 96 well plate (Corning, 356640) and incubated overnight at 37° C. and 5% CO2. Cells were treated with 600 nM Thapsigargin (Sigma, T9033) for 1 hour at 37° C. and 5% CO2 prior to inhibitor addition. A titration of inhibitor, starting at 30 μM was added to wells for an additional 6 hours at 37° C. and 5% CO2. 100 μl of Steady-Glo Luciferase assay reagent (Promega, E2550) was added to plate and the plate was shaken for 2 minutes. Signal was read using EnSpire (Perkin Elmer).

The target of assay [1] is T1, truncated human IRE1a WT protein, containing the catalytic part (aa 547-977) (Homo sapiens, UniProt O75460).
T1 construct: containing the catalytic part (aa 547-977); made in house
As to the kind of experiment: IRE1a biochemical enzyme splice assay. Particulars: 20 nM protein, 500 nM fluorescently quenched IRE1a substrate, 40 min at room temperature; read-out: EnzymeSplice_hIRE1a_IC50 (IC50). As for the experimental part: A truncated human IRE1a WT protein, containing the catalytic part (aa 547-977) was expressed in baculovirus. The purified protein (20 nM) was incubated with a fluorescently quenched IRE1a substrate (500 nM; 5′/6-FAM-CAGUCCGCAGCACUG-BHQ-1/3′) and a titration of inhibitor, starting at 10 μM (final DMSO concentration=1%) for 40 min at room temperature in assay buffer. Reactions were carried out in a final volume of […] in a 384 well assay plate. The reaction was stopped, and the plate was spun for 1 minute at 1000 rpm. The fluorescence intensity of the IRE1a-substrate was measured using an fluorescent plate reader (Ex 485 nm/Em 535 nm, Perkin Elmer Envision).

T1 sequence (O75460 547-977): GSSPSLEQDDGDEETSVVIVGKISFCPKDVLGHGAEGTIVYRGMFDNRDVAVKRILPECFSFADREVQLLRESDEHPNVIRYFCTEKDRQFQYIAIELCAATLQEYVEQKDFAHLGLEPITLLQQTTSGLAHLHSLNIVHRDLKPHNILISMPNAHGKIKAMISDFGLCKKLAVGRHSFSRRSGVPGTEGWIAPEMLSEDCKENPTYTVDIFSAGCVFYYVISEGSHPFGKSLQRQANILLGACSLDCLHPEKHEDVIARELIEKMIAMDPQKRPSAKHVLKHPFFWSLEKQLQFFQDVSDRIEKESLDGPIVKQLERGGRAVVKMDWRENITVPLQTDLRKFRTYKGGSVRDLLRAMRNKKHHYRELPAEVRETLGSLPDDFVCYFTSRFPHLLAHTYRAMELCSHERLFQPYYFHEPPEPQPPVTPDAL

As usually defined, the IC50 is the concentration that gives 50% inhibition. Regarding `CCc1cc(-c2ccc3c(NS(=O)(=O)c4ccccc4Cl)ncnn23)cc2cnc(NC[C@@H]3CCCCN3)nc12` [Compound I-18, (S)-2-chloro-N-(7-(8-ethyl-2-((piperidin-2-ylmethyl)amino)quinazolin-6-yl)pyrrolo[2,1-f][1,2,4]triazin-4-yl)benzenesulfonamide], the IC50 is more than 10 µM in the assay with hIRE1a and 0.1 to 1 µM in assay [1].

Regarding `CCc1cc(-c2ccc3c(NS(=O)(=O)c4ccc(OC(F)(F)F)cc4)ncnn23)cc2cnc(N[C@H]3CCCNC3)nc12` [Compound I-27, (S)—N-(7-(8-ethyl-2-(piperidin-3-ylamino)quinazolin-6-yl)pyrrolo[2,1-f][1,2,4]triazin-4-yl)-4-(trifluoromethoxy)benzenesulfonamide], the half-maximal inhibitory concentration (IC50) with hIRE1a is 1 to 10 µM; in assay [1], 0.1 to 1 µM.

In the case of `CCc1cc(-c2ccc3c(NS(=O)(=O)c4ccccc4Cl)ncnn23)cc2cnc(N[C@H]3CC[C@H](O)C3)nc12` [Compound I-14, 2-chloro-N-(7-(8-ethyl-2-(((1S,3S)-3-hydroxycyclopentyl)amino)quinazolin-6-yl)pyrrolo[2,1-f][1,2,4]triazin-4-yl)benzenesulfonamide], the IC50 in the assay with hIRE1a was more than 10 µM; in assay [1], less than 0.1 µM.

With `CCc1cc(-c2ccc3c(NC[C@H](O)CC)ncnn23)cc2cnc(N[C@H]3CCCNC3)nc12` [Compound I-20, (R)-1-((7-(8-ethyl-2-(((S)-piperidin-3-yl)amino)quinazolin-6-yl)pyrrolo[2,1-f][1,2,4]triazin-4-yl)amino)butan-2-ol], the half-maximal inhibitory concentration (IC50) with hIRE1a is 1 to 10 µM; in assay [1], 0.1 to 1 µM.

For the compound `CCc1cc(-c2ccc3c(NS(=O)(=O)c4ccccc4Cl)ncnn23)cc2cnc(N[C@H]3CCCC[C@H]3O)nc12` [Compound I-10, 2-chloro-N-(7-(8-ethyl-2-(((1S,2R)-2-hydroxycyclohexyl)amino)quinazolin-6-yl)pyrrolo[2,1-f][1,2,4]triazin-4-yl)benzenesulfonamide], in assay [1], the half-inhibitory concentration (IC50) was more than 1 µM.

Regarding `CCc1cc(-c2ccc3c(NS(=O)(=O)c4ccccc4Cl)ncnn23)cc2cnc(N[C@H]3CCCNC3)nc12` [Compound I-22, (S)-2-chloro-N-(7-(8-ethyl-2-(piperidin-3-ylamino)quinazolin-6-yl)pyrrolo[2,1-f][1,2,4]triazin-4-yl)benzenesulfonamide], the IC50 was less than 1 µM in the assay with hIRE1a and less than 0.1 µM in assay [1].

In the case of `CCc1cc(-c2ccc3c(NS(=O)(=O)c4ccccc4Cl)ncnn23)cc2cnc(N[C@H]3CCCCNC3)nc12` [Compound I-12, (S)—N-(7-(2-(azepan-3-ylamino)-8-ethylquinazolin-6-yl)pyrrolo[2,1-f][1,2,4]triazin-4-yl)-2-chlorobenzenesulfonamide], the IC50 in the assay on hIRE1a was less than 1 µM; in assay [1], less than 0.1 µM.

As for `CCc1cc(-c2ccc3c(NS(=O)(=O)c4ccccc4Cl)ncnn23)cc2cnc(NC[C@H]3CCCNC3)nc12` [Compound I-8, (S)-2-chloro-N-(7-(8-ethyl-2-((piperidin-3-ylmethyl)amino)quinazolin-6-yl)pyrrolo[2,1-f][1,2,4]triazin-4-yl)benzenesulfonamide], the IC50 in the assay on hIRE1a is 1 to 10 µM; in assay [1], less than 0.1 µM.

For `CCc1cc(-c2ccc3c(NS(=O)(=O)c4ccccc4Cl)ncnn23)cc2cnc(N[C@H]3CCCC[C@@H]3N)nc12` [Compound I-13, N-(7-(2-(((1S,2S)-2-aminocyclohexyl)amino)-8-ethylquinazolin-6-yl)pyrrolo[2,1-f][1,2,4]triazin-4-yl)-2-chlorobenzenesulfonamide], the IC50 in assay [1] is more than 1 µM.

For `CCc1cc(-c2ccc3c(NS(=O)(=O)c4ccccc4Cl)ncnn23)cc2cnc(N[C@H]3CC[C@H](N)CC3)nc12` [Compound I-32], the half-inhibitory concentration (IC50) in the assay with hIRE1a is less than 1 µM; in assay [1], less than 0.1 µM.

On to `CCc1cc(-c2ccc3c(NS(=O)(=O)c4ccccc4Cl)ncnn23)cc2cnc(NC3CC4(COC4)C3)nc12` [Compound I-28, N-(7-(2-((2-oxaspiro[3.3]heptan-6-yl)amino)-8-ethylquinazolin-6-yl)pyrrolo[2,1-f][1,2,4]triazin-4-yl)-2-chlorobenzenesulfonamide], for which the IC50 in the assay with hIRE1a is more than 10 µM; in assay [1], 0.1 to 1 µM.

Regarding `CCc1cc(-c2ccc3c(NS(=O)(=O)c4ccc(C(F)(F)F)cc4Cl)ncnn23)cc2cnc(N[C@H]3CCCNC3)nc12` [Compound I-34, (S)-2-chloro-N-(7-(8-ethyl-2-(piperidin-3-ylamino)quinazolin-6-yl)pyrrolo[2,1-f][1,2,4]triazin-4-yl)-4-(trifluoromethyl)benzenesulfonamide], the IC50 in assay [1] was more than 1 µM.

Turning to `CCc1cc(-c2cnc3c(NS(=O)(=O)c4ccccc4Cl)nccn23)cc2cnc(N[C@H]3CCCNC3)nc12` [Compound I-6, (S)-2-chloro-N-(3-(8-ethyl-2-(piperidin-3-ylamino)quinazolin-6-yl)imidazo[1,2-a]pyrazin-8-yl)benzenesulfonamide], the concentration for half-maximal inhibition (IC50) was less than 1 µM with hIRE1a and less than 0.1 µM in assay [1].

Turning to `CCc1cc(-c2ccc3c(NS(=O)(=O)c4ccccc4F)ncnn23)cc2cnc(N[C@H]3CCCNC3)nc12` [Compound I-1, (S)—N-(7-(8-ethyl-2-(piperidin-3-ylamino)quinazolin-6-yl)pyrrolo[2,1-f][1,2,4]triazin-4-yl)-2-fluorobenzenesulfonamide], the half-maximal inhibitory concentration (IC50) in the assay on hIRE1a is less than 1 µM; in assay [1], less than 0.1 µM.

`CCc1cc(-c2ccc3c(NS(=O)(=O)c4ccccc4Cl)ncnn23)cc2cnc(N[C@@H]3CNC[C@H](C)C3)nc12` [Compound I-31]: the values for the IC50 (in the assay with hIRE1a; in assay [1]) were less than 1 µM and less than 0.1 µM, respectively.

Turning to `CCc1cc(-c2ccc3c(NS(=O)(=O)Cc4ccccc4)ncnn23)cc2cnc(N[C@H]3CCCNC3)nc12` [Compound I-7, (S)—N-(7-(8-ethyl-2-(piperidin-3-ylamino)quinazolin-6-yl)pyrrolo[2,1-f][1,2,4]triazin-4-yl)-1-phenylmethanesulfonamide], the IC50 in the assay on hIRE1a is less than 1 µM; in assay [1], less than 0.1 µM.

On to `CCc1cc(-c2ccc3c(NS(=O)(=O)c4ccccc4Cl)ncnn23)cc2cnc(N[C@H]3CCCC[C@@H]3O)nc12` [Compound I-4, 2-chloro-N-(7-(8-ethyl-2-(((1S,2S)-2-hydroxycyclohexyl)amino)quinazolin-6-yl)pyrrolo[2,1-f][1,2,4]triazin-4-yl)benzenesulfonamide], for which the figures for the half-maximal inhibitory concentration (IC50) (in the assay on hIRE1a; in assay [1]) were more than 10 µM and 0.1 to 1 µM, respectively.

As for `CCc1cc(-c2ccc3c(NS(=O)(=O)Cc4ccccc4Cl)ncnn23)cc2cnc(N[C@H]3CCCNC3)nc12` [Compound I-25, (S)-1-(2-chlorophenyl)-N-(7-(8-ethyl-2-(piperidin-3-ylamino)quinazolin-6-yl)pyrrolo[2,1-f][1,2,4]triazin-4-yl)methanesulfonamide], the IC50 was less than 1 µM in the assay on hIRE1a and less than 0.1 µM in assay [1].

As for `CCc1cc(-c2ccc3c(NS(=O)(=O)c4ccccc4Cl)ncnn23)cc2cnc(NC[C@@H]3CCCNC3)nc12` [Compound I-17, (R)-2-chloro-N-(7-(8-ethyl-2-((piperidin-3-ylmethyl)amino)quinazolin-6-yl)pyrrolo[2,1-f][1,2,4]triazin-4-yl)benzenesulfonamide], the IC50 in the assay with hIRE1a was more than 10 µM; in assay [1] it was 0.1 to 1 µM.

On to `CCc1cc(-c2ccc3c(NC(=O)NC4CC4)ncnn23)cc2cnc(NC3CCCNC3)nc12` (stereo in doubt) [Compound I-24, 3-cyclopropyl-1-(7-{8-ethyl-2-[(3R)-piperidin-3-ylamino]quinazolin-6-yl}pyrrolo[2,1-f][1,2,4]triazin-4-yl)urea], for which the IC50 is less than 1 µM in the assay with hIRE1a and 0.1 to 1 µM in assay [1].

For the origin of these results see US20240262830A1, “IRE1A MODULATORS AND USES THEREOF” (Nimbus Iaso, Inc., priority 2020, published 2024).
